Paper PMC13107025 (2025)

Legend:
[1] = system: c-Myc G4 (UV titration) (DNA, G4) GCGCTTATGGGGAGGGTGGGGAGGGTGGGGAAGGTGGGGAGGAGAC; experiment: UV-visible absorption titration; conditions: 100 mM KCl; 10 mM Tris-HCl pH 7.4, room temperature; EKB 20 μM, G4:EKB 1:1 to 8:1
[2] = system: c-KIT G4 (UV titration) (DNA, G4) AGGGAGGGCGCTGGGAGGAGGGG; experiment: UV-visible absorption titration; conditions: 100 mM KCl; 10 mM Tris-HCl pH 7.4, room temperature; EKB 20 μM, G4:EKB 1:1 to 8:1
[3] = system: k-RAS G4 (DNA, G4) AGGGCGGTGTGGGAAGAGGGAAGAGGGGGAGG; experiment: FRET melting (real-time PCR); conditions: 50 mM KCl; Tris-HCl pH 7.4; 1 μM oligonucleotide, EKB 8 eq (8 μM)
[4] = system: c-Myc G4 (DNA, G4) GCGCTTATGGGGAGGGTGGGGAGGGTGGGGAAGGTGGGGAGGAGAC; experiment: FRET melting (real-time PCR); conditions: 50 mM KCl; Tris-HCl pH 7.4; 1 μM oligonucleotide, EKB 8 eq (8 μM)
[5] = system: dsDNA (DNA, duplex) CAATCGGATCGAATTCGATCCGATTG; experiment: FRET melting (real-time PCR); conditions: 50 mM KCl; Tris-HCl pH 7.4; 1 μM oligonucleotide, EKB 8 eq (8 μM)
[6] = system: Bcl-2 G4 (DNA, G4) CGGGCGGGAGCGCGGCGGGCGGGCGGG; experiment: FRET melting (real-time PCR); conditions: 50 mM KCl; Tris-HCl pH 7.4; 1 μM oligonucleotide, EKB 8 eq (8 μM)
[7] = system: Bcl-2 G4 (UV titration) (DNA, G4) CGGGCGGGAGCGCGGCGGGCGGGCGGG; experiment: UV-visible absorption titration; conditions: 100 mM KCl; 10 mM Tris-HCl pH 7.4, room temperature; EKB 20 μM, G4:EKB 1:1 to 8:1
[8] = system: c-KIT G4 (DNA, G4) AGGGAGGGCGCTGGGAGGAGGGG; experiment: FRET melting (real-time PCR); conditions: 50 mM KCl; Tris-HCl pH 7.4; 1 μM oligonucleotide, EKB 8 eq (8 μM)
[9] = system: G4 (DNA, G4) GGGGAGGGGCTGGGAGGGCCCGGAGGGGGCTGGGCCGGGGACCCGGGAGGGGTCGGGACGGGGCGGGG; experiment: FRET melting (real-time PCR); conditions: 50 mM KCl; Tris-HCl pH 7.4; 1 μM oligonucleotide, EKB 8 eq (8 μM)
[10] = system: k-RAS G4 (UV titration) (DNA, G4) AGGGCGGTGTGGGAAGAGGGAAGAGGGGGAGG; experiment: UV-visible absorption titration; conditions: 100 mM KCl; 10 mM Tris-HCl pH 7.4, room temperature; EKB 20 μM, G4:EKB 1:1 to 8:1

Question: With `CC(C)=CCc1cc(-c2cc(=O)c3c(O)cc(O)c(CC=C(C)C)c3o2)cc(O)c1O` as the molecule, how does the binding [1] read?
Answer: Its binding is “yes”.

Question: What about the binding [2] of the same molecule?
Answer: The binding was “yes”.

Question: And the ΔTm [3]?
Answer: Its ΔTm is 3.22 °C.

Question: And the ΔTm [4]?
Answer: Its ΔTm is 3.90 °C.

Question: And the ΔTm [5]?
Answer: The ΔTm was “–1.16 °C”.

Question: What about the ΔTm [6] of the same molecule?
Answer: The ΔTm was 7.09 °C.

Question: And the binding [7]?
Answer: Its binding is “yes”.

Question: What about the ΔTm [8] of the same molecule?
Answer: The ΔTm was 4.17 °C.

Question: What about the ΔTm [9] of the same molecule?
Answer: The ΔTm was 2.12 °C.

Question: And the binding [10]?
Answer: Its binding is “yes”.
